From patent publication US7169787B2, “7-azaindoles, use thereof as phosphodiesterase 4 inhibitors and method for producing the same” (Elbion AG, priority 2000, dated 2007)
Structures can show the parent of a compound that is named as a salt.

How the values were obtained:
PDE 4 = test: Inhibition of phosphodiesterase 4 (enzyme preparation from human PMNL, [3H]-cAMP); format: biochemical; conditions: PDE 4 from human PMNL cytosol, 0.5 μM [3H]-cAMP
Experimental: The PDE 4 activity is determined in enzyme preparations from human polymorphonuclear […] (PMNL) and the PDE 2, 3 and 5 activity is determined with PDE from human thrombocytes. Human blood was anti-coagulated with citrate. By centrifuging at 700×g for 20 minutes at room temperature, the thrombocyte-rich plasma in the supernatant is separated from the erythrocytes and leukocytes. The thrombocytes are lysed by ultrasound and used in the PDE 3 and PDE 5 assays. For the determination of the PDE 2 activity, the cytosolic thrombocyte fraction is purified on an anionic exchange column by means of NaCl gradients and the PDE 2 peak is obtained for the assay. The PMNLs for the PDE 4 determination are isolated by a subsequent dextran sedimentation, followed by a gradient centrifugation with Ficoll-Paque. After the cells have been washed twice, the erythrocytes, still contained, are lysed within 6 minutes at 4° C. by the addition of 10 mL of hypotonic buffer (155 mM of NH4Cl, 10 mM of NaHCO3, 0.1 mM of EDTA, pH=7.4). The PMNLs, which are still intact, are washed twice with PBS and lysed with ultrasound. The supernatant of a one-hour centrifugation at 4° C. at 48,000×g contains the cytosolic fraction of the PDE 4 and is used for the PDE 4 measurements.
The phosphodiesterase activity is determined using the method described by Thompson et al. with some modifications (Thompson, W. J. and M. M. Appleman, Assay of cyclic nucleotide phosphodiesterase and resolution of multiple molecular forms of the enzyme, Adv. Cycl. Nucl. Res. 1979, 10, 69–92).
The reaction mixtures contain 50 mM of tris hydrochloride (pH 7.4), 5 mM of magnesium chloride, the inhibitors in various concentrations, the corresponding enzyme preparation as well as the further components necessary for determining the individual isoenzymes (see below). The reaction is started by the addition of the substrate, 0.5 μM of [^3H]-cAMP or [^3H]-cGMP (approximately 6000 CPM per test). The final volume is […]. Test substances are mixed as stock solutions in DMSO. The DMSO concentration in the reaction mixture is 1% v/v. The PDE activity is not affected by this concentration of DMSO. After the reaction is started by the addition of substrate, samples are incubated for 30 minutes at 37° C. The reaction is stopped by heating the test tubes for 2 minutes at 110° C. The samples remain for a further 10 minutes in ice. The addition of 30 μL of 5′-nucleotidase (1 mg/mL, from a poisonous snake suspension from Crotalus adamanteus) is followed by a 10-minutes incubation at 37° C. The samples are stopped on ice, in each case 400 μL of a mixture of Dowex, water and ethanol (1+1+1) is added, mixed well and incubated once again for 15 minutes on ice. The reaction vessels are centrifuged for 20 minutes at 3000×g. Aliquots of the supernatant (200 μL) are transferred directly to scintillation vessels. After the addition of 3 mL of scintillator, the samples are measured in the beta counter.
[^3H]-cAMP is used as substrate for the determination of the PDE 4, 3 and 2 activity and [^3H]-cGMP is used as substrate for the determination of the PDE 5 activity. The enzyme activities, which are nonspecific in each case, are determined in the presence of 100 μM of Rolipram for the determination of PDE 4 and in the presence of 100 μM of IBMX for the determination of the PDE 3 and 5 and subtracted from the test values. The incubation formulations of the PDE 3 assays contained 10 μM of Rolipram, in order to inhibit possible contaminations by PDE 4. The PDE 2 is tested with an SPA assay of the Amersham Company. The assay is carried out in the presence of the activator of the PDE 2 (5 μM of cGMP).

[1] = system: actively sensitized Brown Norway Rats; test: Inhibition of the late phase eosinophilia 48 hours after inhalative ovalbumin challenge; format: in vivo, rat; conditions: 2 h before allergen challenge, BAL 48 h after challenge
Experimental: The inhibition of pulmonary eosinophilia infiltration by the inventive substances is tested on male Brown Norway Rats (200–250 g), which had been actively sensitized against ovalbumin (OVA). The rats were sensitized by subcutaneous injections of a suspension of 10 μg OVA together with 20 mg of aluminum hydroxide as adjuvant in 0.5 mL of physiological salt solution per animal on days 1, 14 and 21. In addition, the animals at the same time received Bordetella pertussis vaccine dilution injected 0.25 mL i.p. per animal. On the 28th day of the experiment, the animals are placed individually in open 1 L Plexiglas boxes, which are connected to a head-nose exposure device. The animals are exposed to an aerosol of 1.0% ovalbumin suspension (allergen challenge). The ovalbumin aerosol is produced by a nebulizer (Bird Micronebulizer, Palm Springs Calif., USA), which is operated with compressed air (0.2 MPa). The exposure time is one hour, normal controls being nebulized also for one hour with an aerosol of 0.9% salt solution.
Forty-eight hours after the allergen challenge, there is a massive migration of eosinophilic granulocytes into the lungs of the animals. At this time, the animals are anesthetized with an excess of ethyl urethane (1.5 g/kg of body weight i.p.) and a bronchoalveolar lavage (BAL) with 3×4 mL of Hank's balance solution is carried out. The total cell count and the number of eosinophilic granulocytes of the pooled BAL liquid are subsequently determined with an automatic cell differentiation instrument (Bayer Diagnostics Technicon HIE). For each animal, the eosinophiles (EOS) in the BAL are calculated in millions/animal: EOS/μl×BAL recovery (mL)=EOS/animal.
For each test, 2 control groups were run (nebulization with physiological salt solution and nebulization with OVA solution).
The percentage inhibition of the eosinophilia of the experimental group, treated with substance, was calculated according to the following formula: {((OVAC−SC)−(OVAD−SC))/(OVAC−SC)}×100%=% inhibition (SC=vehicle-treated control group challenged with 0.9% salt solution; OVAC=vehicle-treated control group challenged with 1% ovalbumin suspension; OVAD=substance-treated experimental group challenged with 1% ovalbumin suspension)
The test substances are applied i.p. or orally as a suspension in 10% polyethylene glycol 300 and 0.5% 5-hydroxyethylcellulose for two hours before the allergen challenge. The control groups are treated with the vehicle in accordance with the application form of the test substance.

[2] = system: release of TNFα from cells of nasal polyps; test: Inhibition of the release of TNFα from cells of nasal polyps (anti-IgE stimulated, ELISA); format: cell-based; conditions: Homo sapiens; concentration 1.0 μmole/L; anti-IgE stimulated nasal polyp cells
Experimental: The experimental arrangement corresponds essentially to the method described by Campbell, A. M. and J. Bousquet (Anti-allergic activity of H1-blockers, Int. Arch. Allergy Immunol., 1993, 101, 308–310). Nasal polyps form the starting material (material from patients, who had been subjected to a surgical treatment).
The tissue is washed with RPMI 1640 and subsequently digested with protease (2.0 mg/mL), collagenase (1.5 mg/mL), hyaluronidase (0.75 mg/mL), and DNAse (0.05 mg/mL) for two hours at 37° C. (1 g of tissue and 4 mL of RPMI 1640 with enzymes). The cells obtained, a mixture of epithelial cells, monocytes, macrophages, lymphocytes, fibroblasts and granulocytes, are filtered and washed by being centrifuged repeatedly in culture solution and sensitized passively by the addition of human IgE and the cell suspension is brought to a concentration of 2 million cells/mL in RPMI 1640 (supplemented by antibiotics, 10% fetal calf serum, 2 mM of glutamine and 25 mM of Hepes). This suspension is distributed on six-well cell culture plates (1 ml/well). The cells are pre-incubated for 30 minutes with the test substances in different final concentrations and subsequently stimulated to release TNFα by the addition of anti-IgE (7.2 μg/mL). The maximum release into the culture medium takes place after about 18 hours. During this period, the cells are incubated at 37° C. and 5% carbon dioxide. The culture medium (supernatant) is recovered by centrifuging (five minutes at 4000 rpm) and kept at −70° C. until the cytokin is determined. The TNFα in the supernatant is determined with so-called sandwich ELISAs (basic material Pharmingen), with which cytokin concentrations ranging from 30 to 1000 pg/mL can be determined.
Cells, not stimulated with anti IgE, hardly produce any TNFα; on the other hand, stimulated cells secrete large amounts of TNFα, which can be reduced, for example, by PDE 4 inhibitors as a function of the dose. From the percentage inhibition (TNFα release by the cells, stimulated with anti IgE=100%) of the substances tested at different concentrations, the IC50 (concentration at 50% inhibition) is calculated.

CC(C)Cn1cc(C(=O)Nc2c(Cl)cncc2Cl)c2cccnc21 [Example 2]
IC50 (PDE 4): 1400 nM

COc1ccc(Cn2cc(C(=O)C(=O)Nc3c(Cl)cncc3Cl)c3cccnc32)cc1 [Example 17]
melting point: 165 to 167 °C | Inhibition of Eosinophilia ([1]; 10 mg/kg i.p.): 75% | Inhibition of Eosinophilia ([1]; 10 mg/kg p.o.): 32% | inhibition at 1 µM [2]: 91% | IC50 (PDE 4): 8 nM

C=C(C)Cn1cc(C(=O)C(=O)Nc2c(Cl)cncc2Cl)c2cccnc21 [Example 28]
melting point: 114 to 116 °C | IC50 (PDE 4): 3 nM

O=C(Nc1ccncc1)C(=O)c1cn(Cc2ccc(Cl)cc2)c2ncccc12 (as salt: HCl) [Example 15]
melting point: 280 to 283 °C (dec.)

O=C(Nc1c(Cl)cncc1Cl)C(=O)c1cn(Cc2cccc(O)c2)c2ncccc12 [Example 24]
melting point: 241 to 244 °C | IC50 (PDE 4): 3 nM

O=C(Nc1ccncc1)C(=O)c1cn(Cc2ccc(F)cc2)c2ncccc12 (as salt: HCl) [Example 13]
melting point: 275 to 278 °C (dec.)

Cc1[nH]c(=O)[nH]c(=O)c1NC(=O)C(=O)c1cn(Cc2ccc(F)cc2)c2ncccc12 [Example 37]
melting point: 297 to 300 °C (dec.) | IC50 (PDE 4): 987 nM

Cc1noc(C)c1Cn1cc(C(=O)C(=O)Nc2c(Cl)cncc2Cl)c2cccnc21 [Example 32]
melting point: 196 to 198 °C | IC50 (PDE 4): 113 nM

O=C(Nc1c(Cl)cncc1Cl)C(=O)c1cn(Cc2ccc(Cl)cc2)c2ncccc12 [Example 16]
melting point: 205 to 207 °C | Inhibition of Eosinophilia ([1]; 10 mg/kg i.p.): 100% | Inhibition of Eosinophilia ([1]; 10 mg/kg p.o.): 70% | inhibition at 1 µM [2]: 90% | IC50 (PDE 4): 2 nM

O=C(Nc1ccncc1)C(=O)c1cn(Cc2ccc(F)cc2)c2ncccc12 [Example 13]
IC50 (PDE 4): 58 nM

CCCCCCn1cc(C(=O)C(=O)Nc2c(Cl)cncc2Cl)c2cccnc21 [Example 26]
melting point: 165 to 167 °C | IC50 (PDE 4): 21 nM

O=C(Nc1c(Cl)cccc1Cl)C(=O)c1cn(Cc2ccc(Cl)cc2)c2ncccc12 [Example 18]
melting point: 166 to 168 °C | IC50 (PDE 4): 31 nM

O=C(NCc1ccncc1)c1cn(CC2CC2)c2ncccc12 [Example 1, N-(4-Pyridylmethyl)-1-cyclopropylmethyl-7-azaindole-3-carboxylic Acid Amide]
IC50 (PDE 4): 710 nM

COc1cccc(Cn2cc(C(=O)C(=O)Nc3c(Cl)cncc3Cl)c3cccnc32)c1 [Example 12, N-(3,5-Dichloropyridine-4-yl)-[1-(3-methoxybenzyl)-7-azaindole-3-yl]-glyoxylic Acid Amide]
melting point: 165 to 167 °C | IC50 (PDE 4): 5 nM

O=C(Nc1c(Cl)cncc1Cl)C(=O)c1cn(CC2CC2)c2ncccc12 [Example 25]
melting point: 215 to 218 °C | IC50 (PDE 4): 4 nM

O=C(Nc1c(Cl)cncc1Cl)C(=O)c1cn(Cc2ccc(O)cc2)c2ncccc12 [Example 23]
melting point: 140 to 142 °C | IC50 (PDE 4): 1 nM

O=C(Nc1ccncc1)C(=O)c1cn(Cc2ccc(Cl)cc2)c2ncccc12 [Example 15]
IC50 (PDE 4): 31 nM
